Measured values published in US7691858B2, “Kinase inhibitors and methods of use thereof” (TargeGen, Inc., priority 2006, dated 2010).

Tests used:
[1] = test system: myocardial infarct; experiment: Porcine MI model; assay type: in vivo, pig
Description: PI3Kγ/δ inhibition limits infarct development in a porcine MI model. In a final series of studies, MIs were modeled in the pig, as this species better approximates human coronary anatomy and responses to myocardial I/R injury. With aggressive model parameters of a 90 min ischemic period, therapeutic dosing 30 min post-reperfusion and infarct measurement at 24 h, we typically observed ischemic zones representing 20-30% of the total LV and 20-30% infarction of this area in control animals. […] Measuring infarct area as percent of total LV ischemic area, infarct size was reduced by 35% (P=0.04). […] Finally, taking advantage of the larger porcine heart to make more detailed measurements, infarct areas within the LV free wall only (as opposed to the free plus attached wall measurements reported up to this point) were also determined, reasoning that free wall infarcts are of greatest relevance to overall myocardial function.
Porcine MI model: All animal studies followed current “NIH Guidelines for the Use of Laboratory Animals” and were performed according to IACUC-approved protocols. Farm swine (Landrace-Duroc cross, 32-41 kg) were acclimated for 1-3 weeks prior to study group randomization. On the day of surgery, animals (fasted overnight) were first administered aspirin, clopridogrel and nifedipine (650, 300 and 300 mg p.o., respectively), followed by atropine sulfate and telazol (0.05 and 7 mg/kg i.m., respectively). Anesthesia was then induced with ketamine and xylazine (25 mg/kg each i.m.) followed by intubation and maintenance on inhaled isoflurane; body temperature was maintained at 35-37° C. using heating pads. For each animal, the ventral neck was shaved and scrubbed with iodine, an arterial sheath inserted into the carotid artery, and under fluoroscopic guidance a guide catheter advanced to the coronary artery ostium. Angiographic images were used to guide angioplasty balloon placement (below the first major LAD bifurcation). After advancing through the guide catheter to the proper location, the balloon was inflated at a steady rate to a pressure sufficient to ensure complete occlusion of the LAD (verified by fluoroscopy), and occlusion maintained for 90 min. Blood pressure was monitored throughout the surgical procedure and adjusted as needed, and ECG monitored for arrhythmias as well as to confirm LAD occlusion. Lactated Ringer's solution was maintained as an i.v. drip (via the auricular vein), and heparin given to maintain an activated clotting time of ˜300 seconds. […] At the end of the ischemic period, the balloon was deflated and removed, and the ischemic area allowed to reperfuse (again verified by fluoroscopy). Catheters were removed, the arterial access ligated, the surgical area closed in layers and buprenorphine (0.01 mg/kg i.m.) administered.
On Study Day 2 (24 hr post-LAD occlusion), a surgical plane of anesthesia was established with sodium pentobarbital, and the LAD exposed and occluded using a suture snare at the same level as previously. Evans blue dye (100 ml of 0.1% saline solution) was injected i.v. and allowed to circulate for 5 min prior to explanting the heart. Hearts were cut into approximately 1 cm short axis slices and TTC stained and photographed as described for the rodent MI model. […]

[2] = molecular target: T1, Abl (Mus musculus, UniProt P00520); experiment: Kinase panel screen; assay type: biochemical; conditions: Compound I and ATP 10 μM
T1 construct: purchased Upstate USA or Invitrogen (commercial screening service)
T1 sequence (P00520 whole entry): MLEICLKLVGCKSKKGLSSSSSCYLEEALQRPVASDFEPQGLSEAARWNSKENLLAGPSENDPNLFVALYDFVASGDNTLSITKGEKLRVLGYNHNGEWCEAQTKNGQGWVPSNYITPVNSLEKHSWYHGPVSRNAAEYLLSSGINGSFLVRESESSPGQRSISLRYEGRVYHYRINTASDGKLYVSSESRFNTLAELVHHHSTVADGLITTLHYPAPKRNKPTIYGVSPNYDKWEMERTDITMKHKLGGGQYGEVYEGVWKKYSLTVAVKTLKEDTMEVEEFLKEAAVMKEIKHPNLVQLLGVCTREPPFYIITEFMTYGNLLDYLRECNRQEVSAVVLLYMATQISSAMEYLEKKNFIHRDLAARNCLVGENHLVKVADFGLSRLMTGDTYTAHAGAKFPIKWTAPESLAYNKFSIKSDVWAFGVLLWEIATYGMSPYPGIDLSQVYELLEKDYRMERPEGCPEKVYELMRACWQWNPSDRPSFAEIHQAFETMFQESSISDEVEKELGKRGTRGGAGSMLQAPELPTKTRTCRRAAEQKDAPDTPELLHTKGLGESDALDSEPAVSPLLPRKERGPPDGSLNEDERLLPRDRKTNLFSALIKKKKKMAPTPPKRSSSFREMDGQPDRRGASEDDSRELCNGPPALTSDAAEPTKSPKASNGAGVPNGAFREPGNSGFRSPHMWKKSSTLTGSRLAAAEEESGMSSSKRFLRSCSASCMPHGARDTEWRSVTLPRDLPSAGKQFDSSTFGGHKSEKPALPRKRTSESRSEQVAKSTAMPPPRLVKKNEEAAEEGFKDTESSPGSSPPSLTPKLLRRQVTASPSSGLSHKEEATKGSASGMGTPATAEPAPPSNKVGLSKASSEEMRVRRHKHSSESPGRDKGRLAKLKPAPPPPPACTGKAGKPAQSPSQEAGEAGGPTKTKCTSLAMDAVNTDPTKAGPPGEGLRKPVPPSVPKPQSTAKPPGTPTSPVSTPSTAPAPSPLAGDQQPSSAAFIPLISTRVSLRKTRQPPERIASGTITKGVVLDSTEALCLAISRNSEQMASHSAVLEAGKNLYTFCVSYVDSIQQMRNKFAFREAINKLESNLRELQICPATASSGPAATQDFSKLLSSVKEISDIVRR

[3] = molecular target: T2, Akt3 (Homo sapiens, UniProt Q9Y243); experiment: Kinase panel screen; assay type: biochemical; conditions: Compound I at 1 μM and ATP at the apparent Km
T2 construct: purchased Upstate USA or Invitrogen (commercial screening service)
T2 sequence (Q9Y243 whole entry): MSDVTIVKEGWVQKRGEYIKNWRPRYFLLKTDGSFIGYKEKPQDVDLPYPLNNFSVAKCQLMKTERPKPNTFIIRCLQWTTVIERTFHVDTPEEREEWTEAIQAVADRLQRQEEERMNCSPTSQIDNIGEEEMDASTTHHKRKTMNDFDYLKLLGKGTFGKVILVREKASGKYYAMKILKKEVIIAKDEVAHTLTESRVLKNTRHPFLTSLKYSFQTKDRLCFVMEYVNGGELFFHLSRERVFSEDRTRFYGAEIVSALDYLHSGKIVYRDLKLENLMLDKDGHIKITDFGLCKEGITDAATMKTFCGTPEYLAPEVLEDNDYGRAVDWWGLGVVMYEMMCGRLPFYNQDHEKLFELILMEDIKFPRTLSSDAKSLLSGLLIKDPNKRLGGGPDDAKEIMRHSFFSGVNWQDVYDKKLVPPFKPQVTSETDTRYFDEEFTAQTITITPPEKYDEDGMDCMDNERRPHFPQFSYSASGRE

[4] = molecular target: T3, ALK4 (Homo sapiens, UniProt P36896); experiment: Kinase panel screen; assay type: biochemical; conditions: Compound I and ATP 10 μM
T3 construct: purchased Upstate USA or Invitrogen (commercial screening service)
T3 sequence (P36896 24-505): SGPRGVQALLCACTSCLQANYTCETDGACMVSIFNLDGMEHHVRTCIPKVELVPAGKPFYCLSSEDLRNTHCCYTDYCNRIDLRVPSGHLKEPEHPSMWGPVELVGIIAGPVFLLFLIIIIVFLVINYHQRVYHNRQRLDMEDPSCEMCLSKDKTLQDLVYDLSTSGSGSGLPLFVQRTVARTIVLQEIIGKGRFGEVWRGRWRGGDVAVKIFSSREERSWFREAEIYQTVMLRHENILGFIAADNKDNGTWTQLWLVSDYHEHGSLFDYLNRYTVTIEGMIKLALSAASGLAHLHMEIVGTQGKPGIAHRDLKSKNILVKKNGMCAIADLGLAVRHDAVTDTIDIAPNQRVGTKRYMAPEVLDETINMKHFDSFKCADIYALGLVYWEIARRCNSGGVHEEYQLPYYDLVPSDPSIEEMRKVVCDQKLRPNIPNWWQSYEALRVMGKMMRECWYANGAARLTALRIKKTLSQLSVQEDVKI

[5] = molecular target: T4, Plk3 (Homo sapiens, UniProt Q9H4B4); experiment: Kinase panel screen; assay type: biochemical; conditions: Compound I and ATP 10 μM
T4 construct: purchased Upstate USA or Invitrogen (contract screening service)
T4 sequence (Q9H4B4 whole entry): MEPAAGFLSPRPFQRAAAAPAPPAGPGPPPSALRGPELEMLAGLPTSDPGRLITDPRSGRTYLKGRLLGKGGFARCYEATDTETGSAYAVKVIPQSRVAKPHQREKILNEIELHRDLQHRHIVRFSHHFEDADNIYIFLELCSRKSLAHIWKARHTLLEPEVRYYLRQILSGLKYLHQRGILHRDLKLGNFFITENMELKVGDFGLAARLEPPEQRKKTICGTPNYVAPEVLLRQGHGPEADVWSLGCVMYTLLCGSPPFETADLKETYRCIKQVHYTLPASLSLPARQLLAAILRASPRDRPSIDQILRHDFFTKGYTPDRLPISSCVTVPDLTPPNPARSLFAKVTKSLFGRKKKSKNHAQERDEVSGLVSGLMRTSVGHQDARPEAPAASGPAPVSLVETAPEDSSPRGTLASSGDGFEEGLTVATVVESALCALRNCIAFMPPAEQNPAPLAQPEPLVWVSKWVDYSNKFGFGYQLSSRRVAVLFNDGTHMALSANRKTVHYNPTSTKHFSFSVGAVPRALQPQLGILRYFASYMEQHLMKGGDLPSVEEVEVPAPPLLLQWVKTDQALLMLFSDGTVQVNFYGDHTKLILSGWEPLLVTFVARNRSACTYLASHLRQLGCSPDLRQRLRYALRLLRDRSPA

[6] = molecular target: T5, PAK2 (Homo sapiens, UniProt Q13177); experiment: Kinase panel screen; assay type: biochemical; conditions: Compound I and ATP 10 μM
T5 construct: purchased Upstate USA or Invitrogen (commercial screening service)

[7] = molecular target: T6, IKKa (Homo sapiens, UniProt O15111); experiment: Kinase panel screen; assay type: biochemical; conditions: Compound I and ATP 10 μM
T6 construct: purchased Upstate USA or Invitrogen (commercial screening service)
T6 sequence (O15111 whole entry): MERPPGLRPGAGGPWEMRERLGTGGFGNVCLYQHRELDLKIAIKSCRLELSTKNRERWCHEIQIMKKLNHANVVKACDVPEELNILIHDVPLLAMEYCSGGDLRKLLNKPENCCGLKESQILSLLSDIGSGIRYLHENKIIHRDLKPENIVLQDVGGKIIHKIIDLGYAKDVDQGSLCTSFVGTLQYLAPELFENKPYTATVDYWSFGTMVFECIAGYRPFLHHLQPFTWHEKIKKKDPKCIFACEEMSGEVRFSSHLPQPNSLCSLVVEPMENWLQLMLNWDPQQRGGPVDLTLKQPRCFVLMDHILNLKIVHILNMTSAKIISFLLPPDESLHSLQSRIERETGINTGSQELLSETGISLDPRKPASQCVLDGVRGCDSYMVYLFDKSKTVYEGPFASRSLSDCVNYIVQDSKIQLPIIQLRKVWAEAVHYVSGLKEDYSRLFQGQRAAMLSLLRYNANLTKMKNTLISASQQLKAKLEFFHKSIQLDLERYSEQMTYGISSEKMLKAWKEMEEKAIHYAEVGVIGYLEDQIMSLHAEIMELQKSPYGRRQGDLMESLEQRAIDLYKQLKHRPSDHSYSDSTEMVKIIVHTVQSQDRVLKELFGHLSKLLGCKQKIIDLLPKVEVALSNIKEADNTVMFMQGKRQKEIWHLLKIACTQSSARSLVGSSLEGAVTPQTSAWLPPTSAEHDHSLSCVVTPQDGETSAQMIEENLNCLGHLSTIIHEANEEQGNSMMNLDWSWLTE

[8] = molecular target: T7, CDK3 (Homo sapiens, UniProt Q00526); experiment: Kinase panel screen; assay type: biochemical; conditions: Compound I and ATP 10 μM
T7 construct: purchased Upstate USA or Invitrogen (commercial screening service)
T7 sequence (Q00526 whole entry): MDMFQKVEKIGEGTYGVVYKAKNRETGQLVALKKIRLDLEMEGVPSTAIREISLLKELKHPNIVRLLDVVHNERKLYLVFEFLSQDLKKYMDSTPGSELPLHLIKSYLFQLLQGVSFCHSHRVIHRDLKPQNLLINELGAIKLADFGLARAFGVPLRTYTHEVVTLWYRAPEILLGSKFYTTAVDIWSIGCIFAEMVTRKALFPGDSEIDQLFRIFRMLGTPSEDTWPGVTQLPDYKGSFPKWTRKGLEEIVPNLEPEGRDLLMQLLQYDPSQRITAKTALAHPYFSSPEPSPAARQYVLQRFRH
T7 sequence (P24864 whole entry partner): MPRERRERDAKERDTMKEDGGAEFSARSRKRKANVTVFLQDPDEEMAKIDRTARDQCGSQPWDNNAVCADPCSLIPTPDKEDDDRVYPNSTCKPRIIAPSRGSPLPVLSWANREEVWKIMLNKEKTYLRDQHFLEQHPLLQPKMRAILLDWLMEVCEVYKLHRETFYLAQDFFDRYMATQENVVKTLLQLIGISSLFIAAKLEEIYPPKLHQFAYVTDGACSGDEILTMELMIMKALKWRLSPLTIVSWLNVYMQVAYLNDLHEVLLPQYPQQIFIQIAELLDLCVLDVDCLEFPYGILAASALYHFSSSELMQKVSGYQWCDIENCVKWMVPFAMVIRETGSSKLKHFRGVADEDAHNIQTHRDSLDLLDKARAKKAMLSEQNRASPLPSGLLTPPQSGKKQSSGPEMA

[9] = molecular target: T8, CDK7 (Homo sapiens, UniProt P50613); experiment: Kinase panel screen; assay type: biochemical; conditions: Compound I and ATP 10 μM
T8 construct: purchased Upstate USA or Invitrogen (contract screening service)

[10] = molecular target: Yes (Homo sapiens, UniProt P07947); experiment: Kinase panel screen; assay type: biochemical; conditions: Compound I and ATP 10 μM
Chain of Yes (P07947 whole entry, the tested form may be a part): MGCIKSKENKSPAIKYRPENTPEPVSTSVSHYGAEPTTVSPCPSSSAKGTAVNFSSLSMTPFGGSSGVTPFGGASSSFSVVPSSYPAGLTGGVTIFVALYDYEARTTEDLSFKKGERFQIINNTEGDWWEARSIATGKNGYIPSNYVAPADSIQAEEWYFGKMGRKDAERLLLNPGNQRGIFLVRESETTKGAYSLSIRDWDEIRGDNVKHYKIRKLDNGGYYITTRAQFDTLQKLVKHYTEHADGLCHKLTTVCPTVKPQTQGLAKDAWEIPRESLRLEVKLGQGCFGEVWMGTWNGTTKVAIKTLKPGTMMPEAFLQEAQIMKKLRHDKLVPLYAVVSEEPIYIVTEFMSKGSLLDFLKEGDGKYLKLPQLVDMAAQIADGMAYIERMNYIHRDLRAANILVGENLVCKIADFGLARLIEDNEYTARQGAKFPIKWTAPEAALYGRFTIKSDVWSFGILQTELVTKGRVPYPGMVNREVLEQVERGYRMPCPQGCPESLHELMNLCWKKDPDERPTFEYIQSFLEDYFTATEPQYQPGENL

[11] = single 0.5 mg/kg i.v. bolus 30 min post-reperfusion, 24 h

With `Nc1nc(N)c2nc(-c3cccc(O)c3)c(-c3cccc(O)c3)nc2n1` [Compound I, 6,7-bis-(3-hydroxyphenyl)-pteridine-2,4-diamine] the “reduction of infarct size vs. controls” value ([1]; single 0.3 mg/kg IV bolus 30 min post-reperfusion, N=12-13) was 32%, the infarct size ([1]; single 0.3 mg/kg IV bolus 30 min post-reperfusion, controls 56%) was 40% and the “increase in viable tissue within the ischemic zone” value [1, 11] was 37%. For the same compound, the “reduction of free wall infarct size vs. vehicle-treated controls” value [1, 11] was 38%, the “reduction of infarct size (infarct area as percent of total LV ischemic area)” value [1, 11] was 35% and the “Percent Control, Abl (m)” value [2] was 66%. The “Percent Control, Akt3*” value [3] was 98%, the “Percent Control, ALK4” value [4] was 91% and the “Percent Control, Plk3” value [5] was 97%. For the same compound, the “Percent Control, PAK2” value [6] was 87%, the “Percent Control, IKKa” value [7] was 100% and the “Percent Control, CDK3” value [8] was 72%. The “Percent Control, CDK7” value [9] was 82% and the “Percent Control, Yes” value [10] was 30%.
